# Experiments:
# Assay in all cases: relative viability (nuclei count vs DMSO), 5 days (fraction); higher = more cells survive
# Alpelisib + Olaparib = compound: Cc1nc(NC(=O)N2CCC[C@H]2C(N)=O)sc1-c1ccnc(C(C)(C)C(F)(F)F)c1 [Alpelisib] + O=C(c1cc(Cc2n[nH]c(=O)c3ccccc23)ccc1F)N1CCN(C(=O)C2CC2)CC1 [Olaparib] (partner 8 µM)
# How it was run: (§1)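 Cells from lung cancer lines were seeded into 1536-well plates and, one day later, dosed by pin tool. Treatments were either a single drug or a fixed dose of an anchor drug with five library-drug doses (not always all listed) in √10 steps. After 5 days, nuclei were stained in a one-step fixation (final 0.05% Triton X-100, 1% formaldehyde, 1 ug/ml Hoechst) and counted on 4× images, and relative viability is the treated-to-vehicle nuclei ratio, as the median of duplicate plates.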
# Vemurafenib + Linsitinib = compound: CCCS(=O)(=O)Nc1ccc(F)c(C(=O)c2c[nH]c3ncc(-c4ccc(Cl)cc4)cc23)c1F [Vemurafenib] + C[C@]1(O)C[C@@H](c2nc(-c3ccc4ccc(-c5ccccc5)nc4c3)c3c(N)nccn32)C1 [Linsitinib] (partner 1 µM)
# How it was run: as §1
# Vemurafenib + Decitabine = compound: CCCS(=O)(=O)Nc1ccc(F)c(C(=O)c2c[nH]c3ncc(-c4ccc(Cl)cc4)cc23)c1F [Vemurafenib] + Nc1ncn([C@H]2C[C@H](O)[C@@H](CO)O2)c(=O)n1 [Decitabine] (partner 2 µM)
# How it was run: as §1
# Alpelisib + Navitoclax = compound: Cc1nc(NC(=O)N2CCC[C@H]2C(N)=O)sc1-c1ccnc(C(C)(C)C(F)(F)F)c1 [Alpelisib] + CC1(C)CCC(c2ccc(Cl)cc2)=C(CN2CCN(c3ccc(C(=O)NS(=O)(=O)c4ccc(N[C@H](CCN5CCOCC5)CSc5ccccc5)c(S(=O)(=O)C(F)(F)F)c4)cc3)CC2)C1 [Navitoclax] (partner 0.5 µM)
# How it was run: as §1
Cell Line,relative viability (Alpelisib + Olaparib; first compound 0.04 µM),relative viability (Alpelisib + Olaparib; first compound 0.1265 µM),relative viability (Alpelisib + Olaparib; first compound 0.4 µM),relative viability (Alpelisib + Olaparib; first compound 1.265 µM),relative viability (Alpelisib + Olaparib; first compound 4 µM),relative viability (Vemurafenib + Linsitinib; first compound 0.03162 µM),relative viability (Vemurafenib + Linsitinib; first compound 0.3162 µM),relative viability (Vemurafenib + Linsitinib; first compound 1 µM),relative viability (Vemurafenib + Decitabine; first compound 0.3162 µM),relative viability (Vemurafenib + Decitabine; first compound 1 µM),relative viability (Alpelisib + Navitoclax; first compound 0.04 µM),relative viability (Alpelisib + Navitoclax; first compound 0.1265 µM),relative viability (Alpelisib + Navitoclax; first compound 0.4 µM),relative viability (Alpelisib + Navitoclax; first compound 1.265 µM),relative viability (Alpelisib + Navitoclax; first compound 4 µM),relative viability (Vemurafenib + Decitabine; first compound 0.1 µM),relative viability (Vemurafenib + Linsitinib; first compound 0.1 µM),relative viability (Vemurafenib + Decitabine; first compound 0.03162 µM)
PC-3 [JPC-3],1.23,1.1,1.24,0.967,1.02,0.909,1.02,1.03,0.81,0.888,0.828,0.836,0.848,0.73,0.762,,,
NCI-H1648,0.887,0.758,1.13,0.4,0.331,,,,0.762,0.463,,,,,,0.351,,
NCI-H1651,0.182,0.188,0.203,0.198,0.17,0.869,1.02,1.09,0.494,0.621,0.956,1.11,1.04,0.773,0.791,0.633,1.09,0.532
NCI-H596,0.705,0.701,0.778,0.491,0.438,1.07,1.12,1.06,0.922,0.864,0.928,0.919,0.815,0.52,0.418,0.959,0.918,0.974
HARA,0.696,0.64,0.742,0.453,0.452,0.942,0.987,0.771,0.673,0.703,1.13,1.17,1.16,1.2,0.575,0.368,,0.458
NCI-H727,0.816,0.708,0.768,0.754,0.448,0.265,0.415,0.394,0.964,0.866,0.33,0.303,0.411,0.244,0.137,0.762,0.281,0.688
Calu-6,0.602,0.529,0.646,0.615,0.577,,0.745,0.927,,,0.834,0.905,0.882,0.633,0.621,,0.981,
NCI-H1993,1.01,0.868,1.13,0.585,0.735,0.668,0.882,0.746,0.651,0.713,1.11,0.879,0.874,0.659,0.702,,,0.513
HCC-366,0.338,0.287,0.374,0.217,0.16,0.637,,0.601,,0.333,1.02,1.08,1.05,0.681,0.334,0.327,0.603,0.332
IA-LM,1.03,0.857,0.776,0.723,0.667,0.537,0.603,0.554,,,0.894,0.727,0.736,0.628,0.718,,0.53,
EPLC-272H,0.936,0.838,0.75,0.393,0.485,1.03,1.14,1.11,0.472,0.399,1.16,1.05,1.19,0.722,0.79,0.367,0.824,0.337
NCI-H441,0.549,0.478,0.733,0.46,0.236,0.555,0.491,0.345,0.28,0.231,0.571,0.434,0.8,0.43,0.552,0.262,0.527,0.252
NCI-H1793,0.805,0.714,0.685,0.495,0.367,0.877,0.893,0.897,0.672,0.492,0.419,0.335,0.356,0.376,0.365,0.325,,0.449
201T,0.82,0.81,0.859,0.774,0.679,0.994,1.06,0.989,0.886,0.799,1.16,1.16,1.2,1.15,1.14,0.825,0.969,0.821
NCI-H460,0.446,0.501,0.496,0.42,0.375,0.677,0.879,0.777,0.485,0.501,1.06,1.25,1.08,0.701,0.299,0.511,0.839,0.435
NCI-H1666,0.771,0.774,0.816,0.704,0.688,0.853,0.922,0.841,0.686,0.764,0.95,0.677,0.937,0.762,0.689,0.724,,0.612
HOP-62,0.533,0.435,0.532,0.282,0.401,0.78,0.94,0.841,0.216,0.2,1,0.893,1.12,0.606,1.06,0.202,1.01,0.196
SW 1573,0.431,0.455,0.406,0.341,0.311,0.791,0.935,0.795,0.484,0.452,0.903,0.879,1.03,0.768,0.585,0.442,0.886,0.386

Cell Line,relative viability (Alpelisib + Olaparib; first compound 0.04 µM),relative viability (Alpelisib + Olaparib; first compound 0.1265 µM),relative viability (Alpelisib + Olaparib; first compound 0.4 µM),relative viability (Alpelisib + Olaparib; first compound 1.265 µM),relative viability (Alpelisib + Olaparib; first compound 4 µM),relative viability (Vemurafenib + Linsitinib; first compound 0.03162 µM),relative viability (Vemurafenib + Linsitinib; first compound 0.3162 µM),relative viability (Vemurafenib + Linsitinib; first compound 1 µM),relative viability (Vemurafenib + Decitabine; first compound 0.3162 µM),relative viability (Vemurafenib + Decitabine; first compound 1 µM),relative viability (Alpelisib + Navitoclax; first compound 0.04 µM),relative viability (Alpelisib + Navitoclax; first compound 0.1265 µM),relative viability (Alpelisib + Navitoclax; first compound 0.4 µM),relative viability (Alpelisib + Navitoclax; first compound 1.265 µM),relative viability (Alpelisib + Navitoclax; first compound 4 µM),relative viability (Vemurafenib + Decitabine; first compound 0.1 µM),relative viability (Vemurafenib + Linsitinib; first compound 0.1 µM),relative viability (Vemurafenib + Decitabine; first compound 0.03162 µM)
NCI-H2085,0.754,0.75,0.794,0.733,0.711,0.862,0.797,1.01,0.536,0.597,1.2,1.06,1.14,0.914,1.11,0.529,0.626,0.495
ABC-1,0.775,0.596,1.01,0.885,0.804,0.711,0.942,0.853,0.967,0.977,,,,,,1.13,0.753,1.01
NCI-H1299,1,0.96,1.01,0.896,0.966,1.02,0.83,0.951,,,1.05,1.05,1.07,1.01,1.02,,0.958,
NCI-H2342,0.448,0.429,0.405,0.367,0.266,,,,0.773,0.706,,,,,,0.702,,0.705
NCI-H1650,0.878,0.786,0.932,0.523,0.622,,,,0.413,0.461,1.29,1.29,1.42,0.762,1.19,0.499,,0.348
NCI-H1703,0.415,0.335,0.296,0.204,0.15,0.738,0.637,0.787,,,1.01,0.994,0.71,0.565,0.464,,0.644,
NCI-H2170,0.519,0.586,0.596,0.481,0.466,,,,0.441,0.455,0.54,0.638,0.52,0.316,0.308,,,0.435
LCLC-103H,0.766,0.787,0.744,0.603,0.497,1.09,1.06,1.18,0.717,0.75,,,,,,0.714,1.04,0.698
EBC-1,0.682,0.74,0.655,0.636,0.587,0.859,0.891,1.02,,,0.417,0.312,0.339,0.233,0.281,,0.822,
CAL-12T,0.771,0.774,0.767,0.726,0.745,0.723,1.02,0.819,,,1.35,1.29,1.22,1.16,1.47,,0.549,
SW 900,0.878,,0.974,0.914,0.795,,,,0.439,0.466,,,,,,0.346,,0.428
NCI-H358,0.665,0.578,0.544,0.403,0.332,0.686,1,0.79,0.226,0.229,,,,,,0.228,,0.211
NCI-H1563,,,,,,1.2,1.3,1.25,,,,,,,,,1.11,
NCI-H650,0.391,0.409,0.425,0.378,0.317,0.709,0.297,0.595,0.308,0.33,,,,,,0.334,0.83,0.311
NCI-H522,0.795,0.693,0.529,0.661,0.491,,,,0.624,0.692,,,,,,0.607,,0.668
NCI-H661,0.734,0.773,0.878,0.732,0.749,0.573,0.663,0.637,0.567,0.625,,,,,,0.495,0.516,0.521
ChaGo-K-1,0.435,0.42,0.426,0.417,0.342,,,,0.493,0.512,1.01,,1.14,0.731,0.583,0.47,,0.548
NCI-H2228,0.889,0.587,0.621,0.341,0.326,0.819,0.773,0.587,,,0.977,1,0.552,0.51,0.294,,0.587,

# From the supplement of paper PMC10307832
